Literature values in patent US8613914B2, “Peptidomimetic sulfamide compounds and antiviral uses thereof” (Novartis AG, priority 2009, dated 2013).

Tested on: HCV
Conditions: ribavirin alone, cited from earlier work

NC(=O)c1ncn([C@@H]2O[C@H](CO)[C@@H](O)[C@H]2O)n1 [Ribavirin, ribavirin]
serum levels of HCV-RNA (patients): does not lower serum levels of HCV-RNA | patients in whom serum amino transferase levels are reduced to normal: 40%
